“Also recorded” adds a separate entry of the source. Where two headings read alike, the source gives them in different places.
Legend:
[1] = system: IL-17 release by human PBMCs; assay: IL-17 release by human PBMCs, isolated cell assay; type: cell-based; details: PBMC, SEM (n), read-out: Compound 1 IC50, IL-17 release by human PBMCs
Excerpt: (§1) CRAC channels may play a proximal role in a calcium-calcineurin pathway leading to cytokine release in immune cells.

[2] = system: stimulated IL-2 release in whole blood; assay: Whole blood assay of stimulated IL-2 release; type: cell-based; details: Human whole blood; SEM (n); read-out: Compound 1 IC50, whole blood assay of stimulated IL-2 release
Excerpt: as §1

[3] = system: IFNγ released from human PBMCs; assay: Cytokine released from human PBMCs: IFNγ; type: cell-based
Excerpt: as §1

[4] = system: IL-6 released from human PBMCs; assay: Cytokine released from human PBMCs: IL-6; type: cell-based
Excerpt: as §1

[5] = system: IL-10 released from human PBMCs; assay: Cytokine released from human PBMCs: IL-10; type: cell-based; details: PBMC, mean of replicates
Excerpt: as §1

[6] = system: cytokine release from human lymphocytes; assay: In vitro studies of cytokine release from human lymphocytes; type: cell-based
[7] = Safety pharmacology studies in rats; type: in vivo
Excerpt: Compound 1 is a non-limiting example of a composition described herein that inhibits calcium release-activated calcium (CRAC) channels).

3T3 = assay: In vitro 3T3 phototoxicity; type: cell-based
[8] = Mouse TLCS-induced and FAEE-induced pancreatitis models; type: in vivo
Excerpt: Potential efficacy of Compound 1 in treating acute lung injury was established in three diverse in vivo models of AP that cause both pancreatic damage and lung inflammation (TLCS-induced, FAEE-induced, and caerulein-induced acute pancreatitis models).

[9] = PD/PK study in patients with acute pancreatitis (Compound 1 Test 202); type: in vivo, human
Protocol: In Compound 1 Test 202, a pharmacodynamic and pharmacokinetic study of Compound 1 in patients with acute pancreatitis, patients with AP (regardless of the presence of SIRS and/or hypoxemia) were administered a single IV infusion of 2.08 mg/kg of an injectable emulsion of Compound 1 and blood, plasma and serum were collected for analysis. It was planned to initially enroll 5 patients and then to enroll an additional 4 patients as needed. Ultimately, 7 patients were screened for the study, and all 7 enrolled in and completed the study. On Days 1 and 2, blood and plasma samples for PD and PK analyses, respectively, were obtained 30 minutes after completing the administration of Compound 1 and 24 hours from the start of the administration of Compound 1. In patients hospitalized at Day 5 and 10, blood and plasma samples were obtained; if discharged earlier, samples were obtained at the time of discharge. After discharge, patients returned to the hospital on Day 30 to provide final blood and plasma samples.

[10] = Animal models of acute pancreatitis and lung injury (general statements); type: in vivo
Excerpt: Preclinical data supports the use of CRAC inhibitors (e.g. N-(5-(6-Chloro-2,2-difluorobenzo[d][1,3]dioxol-5-yl)pyrazin-2-yl)-2-fluoro-6-methylbenzamide, Compound 1) in severe COVID-19 pneumonia.
For example, Compound 1 was effective following i.p. injection in mice (Wen et al., Gastroenterol, 149: 481-492, 2015), and following 4-hour i.v. infusion in rats (Waldron et al., J Physiol, 597.12: 3085-3105, 2019).

[11] = cited from earlier work

SMILES: Cc1cccc(F)c1C(=O)Nc1cnc(-c2cc3c(cc2Cl)OC(F)(F)O3)cn1 [Compound 1, N-(5-(6-Chloro-2,2-difluorobenzo[d][1,3]dioxol-5-yl)pyrazin-2-yl)-2-fluoro-6-methylbenzamide]
- IC50 [1]: 122 ± 36 nM
- IC50 [2]: 178 ± 32 nM
- IC50 ([3]; Homo sapiens, PBMC, mean of replicates, read-out: Mean IC50, IFNγ released from human PBMCs): 138 nM
- IC50 ([3]; Homo sapiens, PBMC, single replicates, read-out: Replicate IC50 values, IFNγ released from human PBMCs): 175 nM
- IC50 ([3]; single replicates, read-out: Replicate IC50 values, IFNγ released from human PBMCs): 102 nM
- IC50 ([4]; Homo sapiens, PBMC, mean of replicates, read-out: Mean IC50, IL-6 released from human PBMCs): 135 nM
- IC50 ([4]; Homo sapiens, PBMC, single replicates, read-out: Replicate IC50 values, IL-6 released from human PBMCs): 145 nM
- IC50 ([4]; single replicates, read-out: Replicate IC50 values, IL-6 released from human PBMCs): 126 nM
- IC50 [5]: 303 nM
- inhibition of cytokine release from human lymphocytes [6]: inhibits release of multiple cytokines; also recorded: potent, concentration-dependent inhibition
- adverse effects on central nervous or respiratory systems [7]: no adverse effects
- phototoxicity, in vitro 3T3 (3T3): potentially phototoxic
- effect of timing of administration on minimizing pancreatic injury ([8]; administered early in the course of disease, later administration retains effectiveness): may be more effective
- lung myeloperoxidase; pancreas trypsin activity, myeloperoxidase activity and histopathological indices ([8]; mouse TLCS-induced and FAEE-induced pancreatitis, two IP doses): markedly reduced
- patients with moderate TEAEs ([9]; 1 of 7 patients): 14%
- patients with severe TEAEs ([9]; 2 of 7 patients, also SAEs, not considered drug related): 29%
- number of TEAEs ([9]; 7 patients, single 2.08 mg/kg): 7 TEAEs
- patients who experienced TEAEs ([9]; 7 patients, single IV infusion of 2.08 mg/kg): 3 patients
- Discharge IL-6 levels, patients with IL-6 ≥ 1000 pg/mL ([9]; PK/PD Single Dose, admission 0): 0
- Discharge IL-6 levels, patients with 150 pg/mL ≤ IL-6 < 1000 pg/mL ([9]; PK/PD Single Dose, admission 1): 0
- TEAEs with causality Unlikely ([9]; of the 7 TEAEs): 2 TEAEs
- TEAEs with causality Unrelated ([9]; of the 7 TEAEs): 5 TEAEs
- mild TEAEs ([9]; of the 7 TEAEs): 3 TEAEs
- moderate TEAEs ([9]; of the 7 TEAEs): 2 TEAEs
- severe TEAEs (also SAEs) ([9]; of the 7 TEAEs): 2 TEAEs
- cytokines and neutrophil infiltration in lung tissue [10]: inhibit
- cytokine levels in serum and lung ([11]; animal models): decreases
- lung inflammation in animal models ([11]; animal models): protect against lung inflammation
- efficacy following i.p. injection ([11]; mice, Wen et al. 2015): effective
- efficacy following 4-hour i.v. infusion ([11]; rats, Waldron et al. 2019): effective

Reference: patent publication US12544371B2, “Methods and compositions for treating acute lung injury and acute respiratory distress syndrome” (CalciMedica, Inc., priority 2020, dated 2026)
